{"source": "patent US20250312469A1", "about": "(CANGET BIOTEKPHARMA, priority 2024, published 2025)", "key": {"[1]": {"tested_on": "p53, Mdm2, AR, AR-Vs, c-Myc, MdmX", "assay": "Western blot/RT-PCR of p53, Mdm2, AR, AR-Vs, c-Myc, MdmX in PCa cells", "type": "cell-based, human", "quoted_text": "Cells were then lysed to determine the expression of AR, AR-Vs, p53, p21, Mdm2, MdmX, and c-Myc as well as PARP cleavage (apoptosis hallmark) using their corresponding antibodies by WB.\nTwenty to fifty μg total protein from each sample (cell lysis or tumor tissue lysis) were heated at 95° C. for 5 minutes after mixing with equal volumes of 2× SDS loading buffer. […] Next, the membrane was incubated with different primary antibodies in TBS-T containing 5% BSA overnight at 4° C. in the range of dilutions from 1:500 to 1:2000 based on the antibody dilution recommended by antibody firms. […] Proteins of interest were detected using Western Lightning ECL-Plus (Perkin Elmer, Waltham, MA) and visualized by various times (3-120 seconds) of exposure. Actin, tubulin and/or GAPDH were detected as the internal control to normalize total protein loading for each sample.\nPertinent to this study, total RNAs were extracted from cancer cells using TRI REAGENT RT (Molecular Research Center), and 5 μg per sample was converted to cDNA with anchored oligo (dT) primers using RevertAid First Strand cDNA Synthesis Kit (Thermo Fisher Scientific, Catalog No. K1622) following the manufacturer's instructions. […] The data were analyzed using the Applied Biosystems 7300 Real Time PCR System and normalized to GAPDH."}, "Whole blood stability": {"assay": "Whole blood stability", "type": "in vitro ADME, human", "protocol": "Both matrices were adjusted to pH 7.4 prior to initiating the experiments. A DMSO stock as first prepared for the test article. […] The vials were kept in a benchtop Thermomixer for the duration of the experiment. Aliquots (100 μL) were taken at each time point (0, 15, 30, 60, and 120 minutes) and added to 96-well plates which had been pre-filled with 300 μL of acetonitrile (ACN). Samples were stored at 4° C. until the end of the experiment. […] Analytical conditions are outlined in Appendix 1."}, "[2]": {"assay": "FL118 drug substance chemical stability (HPLC)"}}, "note": "Where “and” joins values, the source holds several entries; their conditions need not be identical. Identical values can stand only once.", "data": [{"smiles": "CCC1(O)C(=O)OCc2c1cc1n(c2=O)Cc2cc3cc4c(cc3nc2-1)OCO4", "note": "(stereo not shown) [FL118]", "values": [{"measurement": "AR mRNA", "setting": "[1]", "value": "decrease AR mRNA levels"}, {"measurement": "expression of p53, Mdm2, AR, AR-Vs, MdmX, c-Myc", "setting": "[1]", "value": "induces the expression of p53 (p21 increase is a hallmark of p53 activation) and Mdm2 but inhibits AR, AR-Vs, MdmX, and c-Myc"}, {"measurement": "half-life", "setting": "Whole blood stability; 0.5 μM", "value": "long half-life"}, {"measurement": "Percent Remaining", "setting": "Whole blood stability; Human Whole Blood, 0 min", "value": 100, "unit": "%"}, {"measurement": "Percent Remaining", "setting": "Whole blood stability; Human Whole Blood, 15 min", "value": 108, "unit": "%"}, {"measurement": "Percent Remaining", "setting": "Whole blood stability; Human Whole Blood, 30 min", "value": 68, "unit": "%"}, {"measurement": "Percent Remaining", "setting": "Whole blood stability; Human Whole Blood, 60 min", "value": 61, "unit": "%"}, {"measurement": "Percent Remaining", "setting": "Whole blood stability; Human Whole Blood, 120 min", "value": 35, "unit": "%"}, {"measurement": "half-life at 0.5 μM", "setting": "Whole blood stability; both sexes, whole blood (sodium heparin), pH 7.4, Human Whole Blood", "value": 1.23, "unit": "h"}, {"measurement": "whole blood partitioning", "setting": "Blood partitioning; 1 μM", "value": "favorable whole blood partitioning results"}, {"measurement": "RBC to Plasma Partitioning (KRBC/P)", "setting": "Blood partitioning; human whole blood", "value": 1.04}, {"measurement": "Hygroscope", "setting": "[2]", "value": "0.07% and 0.20% and 0.38%"}, {"measurement": "purity and impurity retest", "setting": "[2]", "value": "still well passing the purity and impurity requirement"}]}]}
